Test results taken from PubChem BioAssay (NCI).
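These data come from cells grown in 96-well plates and exposed to compound for 48 hours at five concentrations. GI50: concentration for 50% inhibition of growth. TGI: concentration producing complete growth inhibition.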

How the values were obtained:
Test in all cases: NCI tumour cell line growth inhibition, 48 h
HOP-62 NSCLC = system: HOP-62 NSCLC
MDA-N = system: MDA-N
IGROV1 ovarian = system: IGROV1 ovarian
TK-10 renal = system: TK-10 renal
M14 melanoma = system: M14 melanoma
SK-MEL-28 melanoma = system: SK-MEL-28 melanoma
786-0 renal = system: 786-0 renal
HCT-116 colon = system: HCT-116 colon
LOX IMVI melanoma = system: LOX IMVI melanoma
HT29 colon = system: HT29 colon
SF-539 CNS = system: SF-539 CNS
HCC-2998 colon = system: HCC-2998 colon
NCI/ADR-RES ovarian = system: NCI/ADR-RES ovarian
NCI-H460 lung = system: NCI-H460 lung
CCRF-CEM leukemia = system: CCRF-CEM leukemia
MALME-3M melanoma = system: MALME-3M melanoma
SK-OV-3 ovarian = system: SK-OV-3 ovarian
OVCAR-8 ovarian = system: OVCAR-8 ovarian
COLO 205 colon = system: COLO 205 colon
HL-60(TB) leukemia = system: HL-60(TB) leukemia
HOP-92 NSCLC = system: HOP-92 NSCLC
SW-620 colon = system: SW-620 colon
UACC-257 melanoma = system: UACC-257 melanoma
ACHN renal = system: ACHN renal
DU-145 prostate = system: DU-145 prostate
A549 NSCLC = system: A549 NSCLC
U251 CNS = system: U251 CNS
OVCAR-5 ovarian = system: OVCAR-5 ovarian
PC-3 prostate = system: PC-3 prostate
KM12 colon = system: KM12 colon
A498 renal = system: A498 renal
SNB-75 CNS = system: SNB-75 CNS
OVCAR-3 ovarian = system: OVCAR-3 ovarian
CAKI-1 renal = system: CAKI-1 renal
RXF 393 renal = system: RXF 393 renal
RPMI-8226 leukemia = system: RPMI-8226 leukemia
NCI-H23 lung = system: NCI-H23 lung
SN12C renal = system: SN12C renal
HCT-15 colon = system: HCT-15 colon
NCI-H226 lung = system: NCI-H226 lung
NCI-H522 lung = system: NCI-H522 lung
OVCAR-4 ovarian = system: OVCAR-4 ovarian
K-562 leukemia = system: K-562 leukemia
MOLT-4 leukemia = system: MOLT-4 leukemia
MDA-MB-435 = system: MDA-MB-435
MCF7 breast = system: MCF7 breast
EKVX NSCLC = system: EKVX NSCLC
SK-MEL-5 melanoma = system: SK-MEL-5 melanoma
UO-31 renal = system: UO-31 renal
HS 578T breast = system: HS 578T breast
UACC-62 melanoma = system: UACC-62 melanoma
SF-295 CNS = system: SF-295 CNS
SK-MEL-2 melanoma = system: SK-MEL-2 melanoma
MDA-MB-231 breast = system: MDA-MB-231 breast
BT-549 breast = system: BT-549 breast
T-47D breast = system: T-47D breast
SR leukemia = system: SR leukemia
SF-268 CNS = system: SF-268 CNS
SNB-19 CNS = system: SNB-19 CNS

Structure (SMILES): Clc1ccc2c(NCCCCN3OC3c3ccccc3)ccnc2c1 (configuration not stated)
- TGI (HOP-62 NSCLC): 10.9 µM
- TGI (MDA-N): 16.7 µM
- TGI (IGROV1 ovarian): 27.7 µM
- TGI (TK-10 renal): 22 µM
- TGI (M14 melanoma): 6.22 µM
- TGI (SK-MEL-28 melanoma): 7.42 µM
- TGI (786-0 renal): 6.67 µM
- TGI (HCT-116 colon): 4.36 µM
- TGI (LOX IMVI melanoma): 5.67 µM
- TGI (HT29 colon): 10.9 µM
- TGI (SF-539 CNS): 3.63 µM
- TGI (HCC-2998 colon): 11.1 µM
- TGI (NCI/ADR-RES ovarian): 40.2 µM
- TGI (NCI-H460 lung): 21.9 µM
- TGI (CCRF-CEM leukemia): 8.09 µM
- TGI (MALME-3M melanoma): 16 µM
- TGI (SK-OV-3 ovarian): 34.5 µM
- TGI (OVCAR-8 ovarian): 13.1 µM
- TGI (COLO 205 colon): 7.12 µM
- TGI (HL-60(TB) leukemia): 2.63 µM
- TGI (HOP-92 NSCLC): 25.8 µM
- TGI (SW-620 colon): 18.5 µM
- TGI (UACC-257 melanoma): 34.5 µM
- TGI (ACHN renal): 22.2 µM
- TGI (DU-145 prostate): 24.9 µM
- TGI (A549 NSCLC): 19.2 µM
- TGI (U251 CNS): 9.13 µM
- TGI (OVCAR-5 ovarian): 29.8 µM
- TGI (PC-3 prostate): 26.7 µM
- TGI (KM12 colon): 22.8 µM
- TGI (A498 renal): 12.3 µM
- TGI (SNB-75 CNS): 11.4 µM
- TGI (OVCAR-3 ovarian): 9.33 µM
- TGI (CAKI-1 renal): 21.8 µM
- TGI (RXF 393 renal): 12 µM
- TGI (RPMI-8226 leukemia): 5.98 µM
- TGI (NCI-H23 lung): 35.2 µM
- TGI (SN12C renal): 24.7 µM
- TGI (HCT-15 colon): 23.5 µM
- TGI (NCI-H226 lung): 37.6 µM
- TGI (NCI-H522 lung): 16.4 µM
- TGI (OVCAR-4 ovarian): 12 µM
- TGI (K-562 leukemia): 4.92 µM
- TGI (MOLT-4 leukemia): 9.3 µM
- TGI (MDA-MB-435): 14.5 µM
- TGI (MCF7 breast): 17.5 µM
- TGI (EKVX NSCLC): 38 µM
- TGI (SK-MEL-5 melanoma): 11.4 µM
- TGI (UO-31 renal): 28.6 µM
- TGI (HS 578T breast): 35.9 µM
- TGI (UACC-62 melanoma): 27.1 µM
- TGI (SF-295 CNS): 26.1 µM
- TGI (SK-MEL-2 melanoma): 11.1 µM
- TGI (MDA-MB-231 breast): 5.92 µM
- TGI (BT-549 breast): 27 µM
- TGI (T-47D breast): 16.9 µM
- TGI (SR leukemia): > 100 µM
- TGI (SF-268 CNS): 27.1 µM
- TGI (SNB-19 CNS): 18.9 µM

Structure (SMILES): Nc1nc(N)c2cc(Sc3ccc4ccccc4c3)ccc2n1
- TGI (HOP-62 NSCLC): 4.35 µM
- TGI (MDA-N): 4.66 µM
- GI50 (IGROV1 ovarian): 0.817 µM
- TGI (IGROV1 ovarian): 14.1 µM
- TGI (TK-10 renal): 6.33 µM
- TGI (M14 melanoma): 2.88 µM
- GI50 (SK-MEL-28 melanoma): 1.54 µM
- TGI (SK-MEL-28 melanoma): 2.9 µM
- TGI (786-0 renal): 3.27 µM
- TGI (HCT-116 colon): 1.69 µM
- TGI (LOX IMVI melanoma): 1.93 µM
- TGI (HT29 colon): 3.7 µM
- TGI (SF-539 CNS): 5.04 µM
- GI50 (HCC-2998 colon): 0.878 µM
- TGI (HCC-2998 colon): 2.13 µM
- TGI (NCI/ADR-RES ovarian): 4.35 µM
- TGI (NCI-H460 lung): 2.26 µM
- TGI (CCRF-CEM leukemia): 4.83 µM
- GI50 (MALME-3M melanoma): 1.29 µM
- TGI (MALME-3M melanoma): 2.86 µM
- TGI (SK-OV-3 ovarian): 17.5 µM
- TGI (OVCAR-8 ovarian): 2.84 µM
- TGI (COLO 205 colon): 2.91 µM
- TGI (HL-60(TB) leukemia): 2.77 µM
- TGI (HOP-92 NSCLC): 5.44 µM
- TGI (SW-620 colon): 1.91 µM
- TGI (UACC-257 melanoma): 4.61 µM
- TGI (ACHN renal): 5.15 µM
- TGI (DU-145 prostate): 6.01 µM
- TGI (A549 NSCLC): 12 µM
- TGI (U251 CNS): 3.38 µM
- TGI (OVCAR-5 ovarian): 10.4 µM
- TGI (PC-3 prostate): 6.12 µM
- TGI (KM12 colon): 3.25 µM
- TGI (A498 renal): 17.4 µM
- TGI (SNB-75 CNS): 5.89 µM
- TGI (OVCAR-3 ovarian): 8.63 µM
- TGI (CAKI-1 renal): 15.7 µM
- TGI (RXF 393 renal): 4.62 µM
- TGI (RPMI-8226 leukemia): 4.72 µM
- TGI (NCI-H23 lung): 10.2 µM
- TGI (SN12C renal): 8.93 µM
- TGI (HCT-15 colon): 2.55 µM
- TGI (NCI-H226 lung): 18.1 µM
- TGI (NCI-H522 lung): 3.36 µM
- TGI (OVCAR-4 ovarian): 5.26 µM
- TGI (K-562 leukemia): 1.88 µM
- TGI (MOLT-4 leukemia): 5.51 µM
- TGI (MDA-MB-435): 2.54 µM
- TGI (MCF7 breast): 2.86 µM
- TGI (EKVX NSCLC): 14.5 µM
- TGI (SK-MEL-5 melanoma): 2.24 µM
- TGI (UO-31 renal): 7.69 µM
- TGI (HS 578T breast): 9.17 µM
- TGI (UACC-62 melanoma): 6.09 µM
- TGI (SF-295 CNS): 4.91 µM
- GI50 (SK-MEL-2 melanoma): 1.68 µM
- TGI (SK-MEL-2 melanoma): 3.42 µM
- TGI (MDA-MB-231 breast): 5.28 µM
- TGI (BT-549 breast): 9 µM
- TGI (T-47D breast): 4.04 µM
- GI50 (SR leukemia): 0.805 µM
- TGI (SR leukemia): 5 µM
- TGI (SF-268 CNS): 4.19 µM
- TGI (SNB-19 CNS): 7.61 µM

Structure (SMILES): Nc1[nH]c(=O)nc2snnc12
- TGI (HOP-62 NSCLC): > 100 µM
- TGI (MDA-N): > 100 µM
- TGI (IGROV1 ovarian): > 100 µM
- TGI (TK-10 renal): > 83.9 µM
- TGI (M14 melanoma): > 100 µM
- TGI (SK-MEL-28 melanoma): 96.9 µM
- TGI (786-0 renal): > 100 µM
- TGI (HCT-116 colon): > 100 µM
- TGI (LOX IMVI melanoma): 65.2 µM
- TGI (HT29 colon): > 100 µM
- TGI (SF-539 CNS): > 100 µM
- TGI (HCC-2998 colon): > 100 µM
- TGI (NCI/ADR-RES ovarian): > 100 µM
- TGI (NCI-H460 lung): > 100 µM
- TGI (CCRF-CEM leukemia): > 100 µM
- TGI (MALME-3M melanoma): > 100 µM
- TGI (SK-OV-3 ovarian): > 100 µM
- TGI (OVCAR-8 ovarian): > 100 µM
- TGI (COLO 205 colon): > 100 µM
- TGI (HL-60(TB) leukemia): > 100 µM
- TGI (HOP-92 NSCLC): > 100 µM
- TGI (SW-620 colon): > 100 µM
- TGI (UACC-257 melanoma): > 100 µM
- TGI (ACHN renal): > 100 µM
- TGI (DU-145 prostate): > 100 µM
- TGI (A549 NSCLC): > 100 µM
- TGI (U251 CNS): > 100 µM
- TGI (OVCAR-5 ovarian): > 100 µM
- TGI (PC-3 prostate): > 100 µM
- TGI (KM12 colon): > 100 µM
- TGI (SNB-75 CNS): > 100 µM
- TGI (OVCAR-3 ovarian): > 100 µM
- TGI (CAKI-1 renal): > 28.8 µM
- TGI (RXF 393 renal): > 26.8 µM
- TGI (RPMI-8226 leukemia): > 100 µM
- TGI (NCI-H23 lung): > 100 µM
- TGI (SN12C renal): > 100 µM
- TGI (HCT-15 colon): > 100 µM
- TGI (NCI-H226 lung): > 100 µM
- TGI (NCI-H522 lung): > 100 µM
- TGI (OVCAR-4 ovarian): > 100 µM
- TGI (K-562 leukemia): > 39.7 µM
- TGI (MOLT-4 leukemia): > 100 µM
- TGI (MDA-MB-435): > 100 µM
- TGI (MCF7 breast): > 100 µM
- TGI (EKVX NSCLC): > 100 µM
- TGI (SK-MEL-5 melanoma): > 100 µM
- TGI (UO-31 renal): > 31.2 µM
- TGI (HS 578T breast): > 100 µM
- TGI (UACC-62 melanoma): > 78.3 µM
- TGI (SF-295 CNS): > 100 µM
- TGI (SK-MEL-2 melanoma): 14.4 µM
- TGI (MDA-MB-231 breast): > 100 µM
- TGI (BT-549 breast): > 100 µM
- TGI (T-47D breast): > 100 µM
- TGI (SR leukemia): > 100 µM
- TGI (SF-268 CNS): > 51.7 µM
- TGI (SNB-19 CNS): > 100 µM
